The values that follow come from ChEMBL document CHEMBL1157539, “Thousands of chemical starting points for antimalarial lead identification” (Nature, 2010).

The test system of the experiment is Plasmodium falciparum. Nature of the experiment: GSK_TCMDC: Inhibition of Plasmodium falciparum 3D7 in whole erythrocytes, using parasite LDH activity as an index of growth. Format: functional, organism-based. Particulars: Plasmodium falciparum, 3D7.
In turn, `CCCc1cc2c3c(N)nc(N)nc3ccc2n1CC` displayed an XC50 of 47.7 nM.
In turn, `COc1ccc2c(C)cc(NCCCN(C)C)nc2c1` displayed an XC50 of 1100 nM.
For the molecule `O=C(Nc1cccc(-c2csc(-c3nc4ccccc4[nH]3)c2)c1)c1ccncc1`, the XC50 was 256 nM.
As for `O=C(N[C@H]1CCN(CCc2ccc(O[C@H]3CCNC3)c(F)c2)C1)c1ccc(Cl)c(Cl)c1`, the XC50 stood at 1190 nM.
Next, `CCc1ccccc1-c1csc(C(=O)NCC2CCN(Cc3ccc(C(C)(C)C)cc3)C2)c1` (configuration not stated): 1150 nM.
The molecule `COc1ccccc1C(=O)C1CCCN(C(=O)c2ccccc2C(F)(F)F)C1` (configuration not stated) registered an XC50 of 602 nM.
Consider `CN1CCN(CCCNCc2cccc(-c3ccc(CNCCc4ccccc4)cc3)c2)CC1`, for which the XC50 was found to be 781 nM.
Next, `N#Cc1c(F)cc(N2CCC(NCC[C@H](N)Cc3ccc(F)c(F)c3)CC2)cc1F`: 857 nM; `OC(CNc1ccnc(Nc2cccc(CCN3CCOCC3)c2)n1)c1ccccc1` (configuration not stated): 594 nM.
Turning to `Cc1cc(=NN=Cc2ccccc2Cl)c2cccc(C)c2[nH]1`, the XC50 is 705 nM.
Molecule `CC(C)NC[C@@H](O)[C@H](Cc1ccccc1)NC(=O)c1cc2c3c(c1)c(C(C)C)cn3CCS(=O)(=O)N2C` yielded an XC50 of 179 nM.
`O=C(N[C@H]1CCCC[C@H]1C(=O)O)c1ccccc1` yielded an XC50 of 781 nM.
Molecule `CCNC(=O)Nc1ccc(N(C)c2ccnc(NC3CC3)n2)cc1` registered an XC50 of 803 nM.
Regarding `C=C1N(C)c2cc([N+](=O)[O-])c(N)cc2C1(C)C`, the XC50 was 486 nM.
With `COC(=O)c1cccc(CNCc2ccc(-c3ccc(-c4nc5cc(F)ccc5[nH]4)cc3)cc2)c1`, the XC50 amounted to 237 nM.
Molecule `Nc1nc(N)c2cc(Cc3ccc([N+](=O)[O-])cc3)cnc2n1` showed an XC50 of 943 nM.
Next, `O=C(/C=C/c1ccc(Cl)c(Cl)c1)N1CCC(C(O)CN2CCC(c3c[nH]c4ccccc34)CC2)CC1` (configuration not stated): 859 nM.
As to `COc1c(C2CCN(CCN3CCC(CNC(=O)c4ccc(-c5ccc(C#N)cc5)cc4)CC3)CC2)ccc2c1CCCC2`, the XC50 came to 455 nM.
As for `c1ccc(Oc2ccc(Nc3ccnc4cc(-c5csc(CN6CCCCC6)n5)ccc34)cc2)nc1`, the XC50 amounted to 579 nM.
Then `CCCCCCOc1ccccc1C(=O)NCCOc1ccc(Cl)cc1`, with 1210 nM.
`COc1ccc(CNC(=O)Nc2cc3cc(-c4ccc(CN5CCCC5)cc4)ccc3n3c(C)nnc23)cc1` registered an XC50 of 654 nM.
With `Oc1ccc(CC2CCCN(c3nc(NCCCOc4ccccc4-c4ccccc4)nc(N4CCNCC4)n3)C2)cc1` (configuration not stated), the XC50 worked out at 916 nM.
Consider `Cc1c(O)cccc1Nc1ccnc2ccc(C(F)(F)F)cc12`, for which the XC50 amounted to 31.1 nM.
`CC(C)NCc1cccc(-c2cccc(NC(=O)c3cccc(C#N)c3)c2)c1` displayed an XC50 of 823 nM.
Then `O=S(=O)(NCCN1CCCC1)c1ccc(-c2ccc(CNCc3ccc(F)cc3)cc2)s1`, with 838 nM; and `CS(=O)(=O)CCNCc1ccc(-c2ccc3c(Nc4ccc(Oc5ccccn5)cc4)ccnc3c2)o1`, with 715 nM; and `CN(C)Cc1ccc(-c2cc3c(-c4ccc(CN(C)C)cc4)ccnc3[nH]2)cc1`, with 887 nM.
`CCC(C)(C)c1ccc(S(=O)(=O)Nc2ccc(Cl)c(OCCN3CCCCC3)c2)cc1` showed an XC50 of 1110 nM.
In the case of `NCc1ccc(Nc2nccc(Nc3ccc(-c4ccccc4)cc3)n2)cc1`, the XC50 was 892 nM.
Then `C/C=C1\CN2CC[C@H]1C[C@H]2[C@H](O)c1ccnc2ccc(OC)cc12`, with 318 nM.
`Cc1cc2c(/C=C/C(=O)NC3CCC(CCN4CCc5ccc(C#N)cc5CC4)CC3)cccc2[nH]1` (configuration not stated) gave an XC50 of 840 nM.
Consider `CN(C)C(CNC(=O)c1cc(-c2ccncc2)c(-c2cc3ccccc3[nH]2)o1)c1ccccc1` (configuration not stated), for which the XC50 worked out at 841 nM.
In turn, `O=C(Oc1ccc(Cl)cc1C(=O)Nc1ccc([N+](=O)[O-])cc1Cl)c1ccccc1` gave an XC50 of 912 nM.
Molecule `Cc1cccc2nc(-c3ccc(-c4cccc(CNCc5cnn(-c6ccccc6)n5)c4)s3)[nH]c12` registered an XC50 of 551 nM.
`CC(C)c1sc(N2CCN(C)CC2)nc1C(=O)NCCc1cccc(Cl)c1` yielded an XC50 of 1490 nM.
Molecule `COCC(=O)N(Cc1ccccc1-c1cccc(CNCCc2ccccc2)c1)C1CCN(Cc2ccccc2)CC1` registered an XC50 of 1100 nM.
`CCCc1cc(N2CCC(N3CCCC3)CC2)nc(Nc2ccc(OC)cc2)n1` gave an XC50 of 807 nM.
As for `CCNc1cc(C(=O)N[C@@H](Cc2ccccc2)[C@H](O)CNC(C)(C)CCCC(C)C)cc(N2CCCC2=O)c1`, the XC50 is 827 nM.
As for `CC1CCCC(Nc2noc(-c3sccc3Br)n2)C1` (configuration not stated), the XC50 came out at 689 nM.
Then `Cn1c2c(c3ccccc31)CN(CCC1(c3ccc(Cl)c(Cl)c3)CN(C(=O)Cc3ccccc3)CCO1)CC2` (configuration not stated), with 358 nM; and `CC(C)C(=O)n1ncc2c3c(N)nc(N)nc3ccc21`, with 1030 nM; and `COc1ccc(-c2nc(NC(=O)Cc3ccc4c(c3)OCCO4)sc2C)cc1`, with 245 nM.
Then `COc1ccc(-c2cccc(NC(=O)c3cccc(C#N)c3)c2)cc1CN1CCN(C)CC1`, with 926 nM.
Molecule `NC(=O)c1ccccc1Nc1nc(Nc2ccc(N3CCOCC3)cc2)ncc1[N+](=O)[O-]` came in with an XC50 of 881 nM.
Then `O=C(C=Cc1cn(-c2ccccc2)nc1-c1cccs1)N1CCN(c2ccncc2)CC1`, with 721 nM; and `Nc1cc(-c2cccc(Cl)c2)nn1-c1ccnc2cc(Cl)ccc12`, with 753 nM.
`Cn1cccc1C(=O)C(=O)Nc1ccc(-c2ccc(-c3nc4cc(F)ccc4[nH]3)cc2)cc1` gave an XC50 of 838 nM.
Regarding `CC[C@H](C)CNC(=O)c1cccc(-c2ccc(CN3CCC(N4CCCC4)CC3)cc2)n1`, the XC50 was 788 nM.
The molecule `CCNC(=O)N1CCN(c2nc(-c3ccccc3)nc(COC)c2Cc2ccc(C)cc2)CC1` showed an XC50 of 989 nM.
`Cn1nc(-c2cccc(CNC3CCc4ccccc43)c2)c2cnc(NC3CCCC3)nc21` (configuration not stated) showed an XC50 of 857 nM.
`NC1=NC(c2ccccc2)(c2ccccc2)C(=O)N1CCOc1ccccc1` showed an XC50 of 844 nM.
On to `CC(Cc1ccc(OCCCCOc2ccccc2)cc1)NCCC1CCCN1C` (configuration not stated), for which the XC50 came to 39.7 nM.
Next, `CCOc1ccc(C(=O)Nc2ccc(-c3nc4ccccc4[nH]3)cc2)cc1[N+](=O)[O-]`: 591 nM; `CC(C)NC(=O)c1cccc(-c2cccc(OCCN3CCSCC3c3ccccc3)c2)c1` (configuration not stated): 1010 nM.
The molecule `O=C(NCc1ccccc1)Nc1ccc(-c2ccc(-c3nc4cc(C(F)(F)F)ccc4[nH]3)cc2)cc1` had an XC50 of 671 nM.
As to `Cn1c(Cc2ccccc2)nnc1Sc1ccc(C#N)c([N+](=O)[O-])c1`, the XC50 was 907 nM.
Regarding `COc1ccc(Br)cc1/C=C/C(=O)Nc1cccc(C2CCCN(C)C2)c1` (configuration not stated), the XC50 came to 892 nM.
Next, `Oc1ccc2[nH]c(-c3cccc(F)c3)nc2c1CNCc1ccccc1`: 916 nM.
Take `CNC(=O)c1cc(Nc2nnc(-c3ccc(C)c(S(=O)(=O)NC4CCCCC4)c3)c3ccccc23)ccc1OC`: the XC50 was 904 nM.
The molecule `COc1ccc(N2C(=O)C3C(C2=O)C2(C)c4ccccc4C3(C)c3ccccc32)c([N+](=O)[O-])c1` (configuration not stated) showed an XC50 of 720 nM.
In turn, `CCCC(CNCc1cccc(C)c1)CNc1cc(=O)c2ccccc2[nH]1` (configuration not stated) had an XC50 of 631 nM.
For the molecule `COc1cccc(CNCC(C)(C)c2nc(-c3ccc(Cl)c(O)c3)c(-c3ccncc3)[nH]2)c1`, the XC50 came out at 693 nM.
Turning to `CCCCc1ccc(C(=O)NC2CCN(C[C@H](O)c3ccnc4ccc(OC)cc34)CC2)cc1`, the XC50 came to 728 nM.
As to `CN1C(=CC(=O)NC(=O)c2ccccc2)C(C)(C)c2ccccc21`, the XC50 is 637 nM.
As to `Nc1cc(-c2ccc3c(N)nccc3c2)ccc1Cl`, the XC50 is 1540 nM.
For the molecule `CC(C)NC(=O)Cn1cc(C2CCN(CC3CCN(C(=O)/C=C/c4ccc(Cl)c(Cl)c4)CC3)CC2)c2ccccc21`, the XC50 stood at 1030 nM.
For `O=C(Nc1cccc(Cl)c1Cl)N[C@H]1CCN(CCCCCNC(=O)C2CC2c2ccc(Cl)c(Cl)c2)C1` (some centres not stated), the XC50 worked out at 1280 nM.
As for `CCN(CC)/C(=N/C(=N)Nc1ccc(Br)cc1)NCCCCCCN/C(=N\C(=N)Nc1ccc(Br)cc1)N(CC)CC`, the XC50 was determined as 384 nM.
In turn, `CC(CN1CCN(C)CC1)C(=O)Nc1ccc(-c2ccc(-c3nc4ccccc4[nH]3)s2)cc1` (configuration not stated) yielded an XC50 of 638 nM.
Next, `Fc1ccc2[nH]c(-c3cccc(-c4ccc(CN5CCN(c6ccncc6)CC5)cc4)c3)nc2c1`: 211 nM.
Molecule `O=C(NCC1CC1)C1CCN(C(c2ccc(Cl)cc2)c2ccc(Cl)cc2)CC1` gave an XC50 of 190 nM.
Then `Cn1cncc1C(=O)Nc1ccc(-c2cccc(-c3nc4cc(F)ccc4[nH]3)c2)cc1`, with 818 nM; and `Nc1ncnc2nc(-c3ccc(F)cc3)cc(-c3ccc(NC(=O)c4ccccc4)cc3)c12`, with 640 nM; and `CCN(CCCN1CCCCC1)c1cc(C)nc(Nc2cccc(OC(F)(F)F)c2)n1`, with 229 nM.
Then `CCOC(=O)C(=CNc1ccc(Cc2cnc(N)nc2N)cc1CC)C(=O)OCC`, with 1140 nM.
Then `CCCCN(Cc1cccc(C(F)(F)F)c1Cl)c1ccc(C(O)(C(F)(F)F)C(F)(F)F)cc1`, with 960 nM.
In turn, `CCc1c[nH]c2c(N3CCCC3=O)cc(C(=O)N[C@@H](Cc3ccccc3)[C@H](O)CNC(C)(C)CCCC(C)C)cc12` returned an XC50 of 511 nM.
Regarding `O=C(Nc1cc(Cl)ccc1-n1cncn1)C1(c2ccccc2)CC1`, the XC50 stood at 455 nM.
Take `CCn1c(-c2nonc2N)nc2c(-c3cccc(NC(=O)Nc4ccc5c(c4)CCC5)c3)ncc(OCCCN)c21`: the XC50 was 783 nM.
`O=C(Nc1cccc(CN2CCCN(Cc3ccccc3)CC2)c1)c1cc2ccccc2s1` came in with an XC50 of 1200 nM.
Molecule `COc1ccc(CN2CCC(C(=O)Nc3cccc(-c4cccc(Cl)c4)c3)CC2)cc1O` displayed an XC50 of 975 nM.
As to `O=C(Nc1cccc(CN2CCCN(Cc3ccccc3)CC2)c1)c1ccc(Cl)c(Cl)c1`, the XC50 turned out to be 896 nM.
Turning to `CCOc1cc(C(=O)Nc2cccnc2)ccc1-c1nc2cc(Cl)c(Cl)cc2[nH]1`, the XC50 amounted to 1010 nM.
For the molecule `COc1ccc(CNC(=N)Nc2nc(-c3ccc(OCCCn4ccnc4)cc3)cs2)cc1`, the XC50 is 393 nM.
Turning to `CC(CN(C)C)C(=O)Nc1cccc(-c2ccc(-c3nc4cc(F)ccc4[nH]3)cc2)c1` (configuration not stated), the XC50 worked out at 653 nM.
`O=C(Nc1ccc(Cl)c(Cl)c1)Nc1ccccc1N1CCNCC1`: the XC50 came out at 709 nM.
Then `COc1ccc(CCNC(C)Cc2ccc(C(=O)Nc3ccc(CC(C)NCCc4cccc(Cl)c4)cc3)cc2)cc1` (configuration not stated), with 248 nM.
